# Measured values published in patent publication US5223526A, “Pyrazole carboxanilide fungicides and use” (Monsanto Company, priority 1992, dated 1993).
# How the values were obtained:
# [1] = tested on: Rhizoctonia solani; test: Rice sheath blight; type: in vivo; set-up: scale not given here; conditions: inoculated two days later, rated after 7 days, average of five plants; for Disease Control Rating at 0.02 mg/mL: foliage and soil sprayed with 0.02 mg/mL; for Disease Control Rating at 0.1 mg/mL: foliage and soil sprayed with 0.1 mg/mL; for Disease Control Rating at 0.5 mg/mL: foliage and soil sprayed with 0.5 mg/mL
# Summary of the method: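 Rice plants 11–15 days old had foliage and soil sprayed with 0.5, 0.1 or 0.02 mg/mL Compound A in water/acetone/Tween 20, then kept in flooded trays. Two days later, rice-grain Rhizoctonia solani inoculum went to plant bases; disease control scored versus untreated after 7 days at 25 °C, high humidity, averaging five plants.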
# [2] = tested on: Botrytis cinerea; test: Vine grey mold (grape berries); type: in vivo; conditions: average of six berries, 7-10 days; for pest or weed control at 50 ppm: grape berries treated with 50 ppm, read-out: % DISEASE CONTROL 50 ppm; for pest or weed control at 200 ppm: grape berries treated with 200 ppm, read-out: % DISEASE CONTROL 200 ppm
# Summary of the method: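 Preventive berry test: compound at 50 or 200 ppm (acetone/water, 0.05% Tween 20) applied one day before inoculation with 10^6 spores/mL Botrytis conidia. After 7-10 days at 20 °C under 12 h light, infected surface area rated; disease control expressed as percent reduction from control mean; repeated-test values averaged.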
# [3] = target: T1, succinate dehydrogenase (Botrytis cinerea, UniProt A0A384J5E4+A0A384J8V8+A0A384JHJ5); test: Enzyme inhibition: succinate dehydrogenase activity in Botrytis cinerea mitochondria (DCPIP reduction); type: biochemical; conditions: concentration required to inhibit the rate of DCPIP reduction by 50%; Botrytis cinerea isolate Nick mitochondria; read-out: I50 (μM conc.)
# T1 construct: succinate-DCPIP reductase assay with KCN
# Summary of the method: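 Crude mitochondria from Botrytis cinerea isolate Nick mycelia, prepared by bead-beating and differential centrifugation, started reactions. SDH activity followed as DCPIP reduction at 600 nm in 50 mM K-phosphate pH 7.2 with 1 mM KCN, 45 μM DCPIP, 17 mM succinate, 1% acetone. I50 from semilog inhibition plots, corrected for succinate-free rates.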
# [4] = tested on: Botrytis cinerea; test: Eggplant grey mold; type: in vivo; set-up: scale not given here; conditions: inoculated 24 h later, rated after 3-4 days; for Disease Control Rating at 500 ppm: eggplant sprayed with 500 ppm; for Disease Control Rating at 20 ppm: eggplant sprayed with 20 ppm; for Disease Control Rating at 100 ppm: eggplant sprayed with 100 ppm
# Summary of the method: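 Protective test: compound formulations (2:3 acetone:water, 0.5% Tween 20; 500, 100 or 20 ppm) sprayed on 14-18-day-old plants, with spore inoculum (4×10^6 spore/mL) applied a day later. Disease control rated on Botrytis lesions after 3-4 days at 23 °C and 100% humidity.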
# T1 sequence (A0A384J5E4 1-300): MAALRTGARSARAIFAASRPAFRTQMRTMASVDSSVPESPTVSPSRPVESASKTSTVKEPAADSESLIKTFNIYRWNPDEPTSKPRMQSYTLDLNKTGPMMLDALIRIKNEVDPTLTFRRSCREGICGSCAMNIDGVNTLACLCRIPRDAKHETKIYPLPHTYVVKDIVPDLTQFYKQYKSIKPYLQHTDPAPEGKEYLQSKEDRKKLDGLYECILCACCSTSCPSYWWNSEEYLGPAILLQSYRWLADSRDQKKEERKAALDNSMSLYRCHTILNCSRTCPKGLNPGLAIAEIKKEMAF
# T1 sequence (A0A384J8V8 1-189): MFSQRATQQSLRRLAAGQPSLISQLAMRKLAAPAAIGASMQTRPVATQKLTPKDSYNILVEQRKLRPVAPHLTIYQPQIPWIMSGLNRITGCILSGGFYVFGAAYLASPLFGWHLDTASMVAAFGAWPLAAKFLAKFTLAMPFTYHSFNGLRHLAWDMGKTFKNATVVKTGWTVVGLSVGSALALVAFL
# T1 sequence (A0A384JHJ5 1-192): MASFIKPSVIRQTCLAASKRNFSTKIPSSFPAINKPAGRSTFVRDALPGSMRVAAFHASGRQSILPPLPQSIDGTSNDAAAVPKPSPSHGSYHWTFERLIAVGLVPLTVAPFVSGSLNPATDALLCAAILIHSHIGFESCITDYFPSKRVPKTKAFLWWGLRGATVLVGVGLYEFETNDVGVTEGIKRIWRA
# T1 sequence (A0A384K456 1-647 partner): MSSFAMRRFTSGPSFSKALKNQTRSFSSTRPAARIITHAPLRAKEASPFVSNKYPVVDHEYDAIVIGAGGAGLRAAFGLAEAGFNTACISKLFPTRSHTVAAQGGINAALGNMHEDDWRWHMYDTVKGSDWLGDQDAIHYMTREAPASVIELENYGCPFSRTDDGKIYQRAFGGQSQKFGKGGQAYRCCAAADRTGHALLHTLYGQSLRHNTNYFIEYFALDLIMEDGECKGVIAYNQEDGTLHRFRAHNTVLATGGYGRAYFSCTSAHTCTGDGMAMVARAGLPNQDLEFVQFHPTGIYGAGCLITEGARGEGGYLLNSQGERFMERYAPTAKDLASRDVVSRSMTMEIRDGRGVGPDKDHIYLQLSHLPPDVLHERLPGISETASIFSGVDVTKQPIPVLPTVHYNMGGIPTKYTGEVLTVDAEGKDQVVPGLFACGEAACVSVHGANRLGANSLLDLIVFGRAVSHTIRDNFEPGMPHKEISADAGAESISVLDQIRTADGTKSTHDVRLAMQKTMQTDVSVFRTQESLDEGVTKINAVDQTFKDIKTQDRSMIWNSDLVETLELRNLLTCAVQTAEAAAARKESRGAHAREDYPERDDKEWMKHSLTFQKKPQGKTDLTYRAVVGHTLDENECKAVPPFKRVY
Compound,Disease Control Rating at 0.02 mg/mL [1],Disease Control Rating at 0.1 mg/mL [1],Disease Control Rating at 0.5 mg/mL [1],pest or weed control at 50 ppm [2],pest or weed control at 200 ppm [2],IC50 [3],Disease Control Rating at 500 ppm [4],Disease Control Rating at 20 ppm [4],Disease Control Rating at 100 ppm [4]
"Cc1c(C(=O)Nc2ccccc2C2CCCCCC2)c(C(F)(F)F)nn1C [Example 99, 1H-pyrazole-4-carboxamide, N-(2-cycloheptylphenyl)-1,5-dimethyl-3-(trifluoromethyl)-]",2,3,3,27%,53%,0.065 µM,1,,
"Cc1c(C(=O)Nc2ccccc2C2CCCC2)c(C(F)(F)F)nn1C [Example 101, 1H-pyrazole-4-carboxamide, N-(2-cyclopentylphenyl)-1,5-dimethyl-3-(trifluoromethyl)-]",0,1,3,10%,16%,1.4 µM,0,,
"Cn1cc(C(=O)Nc2ccccc2C2=CCOCC2)c(C(F)F)n1 [Example 104, 1H-pyrazole-4-carboxamide, 3-(difluoromethyl)-N-[2-(5,6-dihydro-2H-pyran-4-yl)phenyl]-1-methyl-]",,,0,0%,48%,0.77 µM,0,,
"Cc1c(C(=O)Nc2ccccc2C2CCCCCC2)c(Cl)nn1C [Example 105, 1H-py-razole-4-carboxamide, 3-chloro-N-(2-cycloheptylphenyl)-1,5-dimethyl-]",,,0,6%,0%,0.26 µM,1,0,0
"Cc1nn(C)c(Cl)c1C(=O)Nc1ccccc1C1CCCCCC1 [Example 107, 1H-pyrazole-4-carboxamide, 5-chloro-N-(2-cycloheptylphenyl)-1,3-dimethyl-]",1,3,3,27%,49%,0.055 µM,0,,
"Cn1cc(C(=O)Nc2ccccc2C2=CCOCC2)c(C(F)(F)F)n1 [Example 108, 1H-pyrazole-4-carboxamide, N-[2-(5,6-dihydro-2H-pyran-4-yl)phenyl]-1-methyl-3-(trifluoromethyl)-]",,,0,12%,0%,1.6 µM,0,,
"Cn1cc(C(=O)Nc2ccccc2C2=CCCCC2)c(C(F)F)n1 [Example 109, 1H-pyrazole-4-carboxamide, N-[2-(1-cyclohexen-1-yl)phenyl]-3-(difluoromethyl)-1-methyl-]",0,1,3,100%,100%,0.0072 µM,0,,
"Cn1cc(C(=O)Nc2ccccc2C2=CCCCC2)c(C(F)(F)F)n1 [Example 110, 1H-pyrazole-4-carboxamide, N-[2-(1-cyclohexen-1-yl)phenyl]-1-methyl-3-(trifluoromethyl)-]",0,0,3,97%,100%,0.019 µM,2,1,2
"Cn1cc(C(=O)Nc2ccccc2C2=CCCCCC2)c(C(F)F)n1 [Example 111, 1H-pyrazole-4-carboxamide, N-[2-(1-cyclohepten-1-yl)phenyl]-3-(difluoromethyl)-1-methyl-]",3,3,3,99%,100%,0.0038 µM,1,1,1
"Cn1cc(C(=O)Nc2ccccc2C2=CCCCCC2)c(C(F)(F)F)n1 [Example 112, 1H-pyrazole-4-carboxamide, N-[2-(1-cyclohepten-1-yl)phenyl]-1-methyl-3-(trifluoromethyl)-]",,,0,88%,95%,0.0021 µM,3,2,3
"Cc1nn(C)c(F)c1C(=O)Nc1ccccc1C1CCCCCC1 [Example 113, 1H-pyrazole-4-carboxamide, N-(2-cycloheptylphenyl)-5-fluoro-1,3-dimethyl-]",3,3,3,28%,60%,0.013 µM,3,1,1
"Cn1nc(C(F)F)c(C(=O)Nc2ccccc2C2CCCCCC2)c1Cl [Example 114, 1H-pyrazole-4-carboxamide, 5-chloro-N-(2-cycloheptylphenyl)-3-(difluoromethyl)-1-methyl-]",3,3,3,78%,90%,0.0036 µM,2,0,1
"Cn1nc(C(F)F)c(C(=O)Nc2ccccc2C2CCCCCC2)c1F [Example 115, 1H-pyrazole-4-carboxamide, N-(2-cycloheptylphenyl)-3-(difluoromethyl)-5-fluoro-1-methyl-]",3,3,3,42%,95%,0.0065 µM,3,1,2
"Cn1cc(C(=O)Nc2ccccc2C=C2CCCCC2)c(C(F)F)n1 [Example 116, 1H-pyrazole-4-carboxamide, N-[2-(cyclohexylidenemethyl)phenyl]-3-(difluoromethyl)-1-methyl-]",1,1,3,21%,68%,0.048 µM,1,0,0
